From patent publication US20120058541A1, “ENGINEERING RESISTANCE TO ALIPHATIC ALCOHOLS” (BUTAMAX(TM) ADVANCED BIOFUELS LLC, priority 2009, published 2012)

Test system: L. plantarum PN0512
Protocol: IC50 values were determined in shake flasks as follows. Duplicate glass test tubes containing 5 ml MRS medium plus 10 μg/ml chloramphenicol (MRS-Cm) were each inoculated with a single colony and grown for 24 h at 30° C. in a rollerdrum. 500 μl of each of these cultures were used to inoculate 25 ml MRS-Cm, which was grown for 16 h at 30° C. with shaking at 110 rpm. […] Cultures were grown at 30° C. with shaking at 110 rpm, and growth was measured by monitoring OD600. OD600 values that were clearly off the growth curve were discarded (less than 1% of values were discarded).
This is mathematically equivalent to drawing a line between (C1,I1) and (C2,I2) and finding the concentration at which that line intersects I=50%. An IC50 was calculated for each set of flasks inoculated from the same preculture. An average IC50 was also calculated.

CCCCO [Strain 1-butanol, 1-butanol]
1-butanol IC90: 2.3%
